Measurements taken from publication PMC3126777, “Selective anticancer activity of a hexapeptide with sequence homology to a non-kinase domain of Cyclin Dependent Kinase 4” (Molecular Cancer, 2011).
Entries after “also recorded” stand apart in the source; their conditions may differ.

Experiments:
[1] = system: RT112 human bladder cancer and H460 human non-small lung cancer cell lines; experiment: Cell killing by cyclic amphiphilic peptides (viability and clonogenic survival); assay type: cell-based
Excerpt: Attempts to limit proteolysis and improve cell uptake, by incorporating the hexameric peptide sequence into cyclic peptide cassettes were undertaken, initially without success (Table 3,X-XIII). Linear constructs attaching PRGPRP to a known cell-internalising amphiphilic sequence were also unsuccessful (Table 3,XIV and 3XV). […] Selective toxicity to these cancer cell lines, and not normal fibroblasts, was retained (Table 4).
All cell lines were from certified sources.

NCI-H460 cells [2] = experiment: Total cellular protein (sulphorhodamine B assay); assay type: cell-based, human; conditions: H460, 100 μM THR53, up to 96 hours, sulphorhodamine B
Protocol: Control medium/alamar blue were removed and 200 μl PBS was added. […] Wells were rinsed with water and allowed to air dry. Cells were then stained in 0.4% SRB solution, before rinsing with 1% acetic acid and air drying. Incorporated dye was solubilised in 10 mM Tris and absorbance measured at 565 nm and 690 nm. Absorbance measurements at 690 nm were subtracted from the 565 nm readings to correct for multi-well plate absorbance.

[3] = Preliminary pharmacokinetic experiments; assay type: in vivo; conditions: maximum tolerated dose, species not given
NCI-H460 cells [4] = experiment: Mitochondrial function (alamar blue); assay type: cell-based, human; conditions: H460, 100 μM THR53, up to 96 hours, Alamar Blue
Protocol: Mitochondrial function (alamar blue) NCI-H460 cells were grown in Ham's F12 media supplemented with 10% FCS. Cells were harvested and added to 96-well plates at densities of 250-1000. Compounds were made up from stock solutions and added directly to cells at the concentrations indicated. Cells were grown with compound for the indicated time at 37°C, 5% CO2, in a humidified atmosphere. Alamar Blue 10% (v/v) was then added and incubated for a further 4 h, and fluorescent product detected using the BMG FLUOstar plate reader. The media only background was subtracted and the data analysed as appropriate.

[5] = system: MRC5-hTERT immortalised fibroblasts; experiment: Necrosis assay by Trypan Blue exclusion, MRC5-hTERT; assay type: cell-based
Protocol: Necrosis Assay Cells were plated in triplicate in 96 well plates at concentrations of 500 cells per well (HT1299, MCF-7) or 1000 cells per well (H460, MRC5-hTERT) in the presence or absence of the relevant compound and assessed by Trypan Blue exclusion At 2,3,4 and 7 days after plating. To assay, cells were trypsinised off, stained with trypan blue in isotonic medium and live and dead cells separately counted visually by haemocytomter. Each data point is the mean of results from triplicate wells (Solid lines - Live cells, Broken lines - Dead Cells; Blue - Control, Red - THR53 200 μM).

NCI-H460 cells [6] = experiment: Cellular ATP levels (CellTiter-Glo assay); assay type: cell-based, human; conditions: H460, 100 μM THR53, between 48 and 96 hours, CellTiter-Glo luminescence
Protocol: Cellular ATP levels (CellTiter-Glo assay) Cells were grown, seeded and compound-treated as for the alamar Blue assay. A volume of the CellTiter-Glo reagent equal to the volume of cell culture media was added to the cells. Plates were mixed for 2 min on an orbital shaker to induce cell lysis before the plate was incubated at room temperature for 10 min to stabilize the signal. The luminescent signal was measured and the media only background was subtracted.

H460 cells = experiment: Cell cycle phase distribution (DNA histograms); assay type: cell-based, human
Excerpt: Cell death, however, was not dependent on cell division in MCF-7, RT112 or H460. […] had no effect on cell cycle phase distribution in H460 cells (Figure 6B) and […] hexapeptide cancer cell killing was unrelated to endogenous levels of Cdk4 or Cyclin D1. […] A. Macroscopic appearances of cycling […]-treated MCF-7 human breast cancer cells in medium + 10% FCS (left hand panels) compared to the same cells held outside the cell cycle in medium + 0.1%FCS (right hand panel) B. […] C. Sequential Western blots of Cdk1 and Cdk4 expression in RT112 human bladder cancer cells at 0 - 10 days after exposure to 5 mM linear, end-capped, […].

[7] = system: H460 human non-small cell lung cancer cells; experiment: H460 cell killing at the dose chosen for assay comparison; assay type: cell-based; conditions: 100 μM, by 96 hours
Protocol: In order to probe the mechanism of PRGPRP analogue induced cell death, three assays were conducted on H460 human non-small cell lung cancer cells over a period of 96 hours following exposure to THR53 (Figure 7A). Total cellular protein was measured by sulphorhodamine B [31], mitochondrial oxidation/reduction was measured by Alamar Blue assay and cellular ATP level was measured by luciferase activity. A dose of 100 μM THR53 at which 50% of H460 cells were killed by 96 hours was chosen for assay comparison. […] An assay for autophagy was thus carried out which utilises a proprietary reagent (Cyto-ID Green) that specifically labels autophagolysosomes, co-localising with LC3, a specific autophagosome marker. 25 μM Chloroquine was used as a positive control agent known to induce autophagy. […] However, no difference in the mean fluorescent intensity was seen following treatment with 100 μM THR53 at either 72 h or 96 h, when compared with control.

[8] = system: MRC5-hTERT immortalised fibroblasts; experiment: Time lapse photomicrography, MRC5-hTERT; assay type: cell-based, human; conditions: 200 μM; except for some generalised slowing of growth
Protocol: (§1) Progressive morphological changes in dying H460 cells exposed to 200 μM THR53 [additional file 1], contrasted with progressive cell division in untreated H460 cells [additional file 2] are shown as videos. Immortalised MRC5-hTERT fibroblasts, were unaffected by exposure to 200 μM THR53 except for some generalised slowing of growth (Figure 5A), [additional file 3] as compared to control, untreated, MRC5-hTERT cells [additional file 4]. RT112 cells were more sensitive to THR53 than H460 cells and died within 30 - 40 hours as compared to 96 hours for H460 and the majority of other human cancer cell lines investigated.
(§2) Figure 5 Time Lapse Photomicrography of MRC5-hTERT, RT112 human bladder cancer and […] human non-small cell lung cancer following exposure toTHR53. Cells were incubated in Ham's F12 + 10% FCS (control medium) or medium + 200 μM THR53. Morphological changes of vacuolation + cellar swelling are seen in RT112 at 33 hours after exposure to THR53 and in H460 at 90 hours after exposure to THR53. There was no evidence of cell blebbing or fragmentation. (see also videos)

[9] = system: H460 human non-small cell lung cancer cells; experiment: Time lapse photomicrography, H460; assay type: cell-based; conditions: H460, 200 μM THR53, Ham's F12 + 10% FCS
Protocol: as §1, §2

## Cyc-[FPPRGPRPVKLALKLALK] (head to tail) [THR53, cyclic amphiphilic analogue, Cyc-[…]]
[1]; cyclic amphiphilic cassettes compared with the earlier PRGPRP peptides
  improvement in selective cancer cell cytotoxicity: fifty- to a hundred-fold improvement
[1]; for the majority of cell lines
  time at which cell killing reached a maximum: ≤ 4 days
NCI-H460 cells [2]
  total cellular protein: without change
[3]
  plasma levels: low plasma levels which were not persistent
NCI-H460 cells [4]
  mitochondrial oxidation/reduction: without change
[5]; 200 μM (Figures 4A and 5A)
  cytotoxicity to MRC5-hTERT immortalised fibroblasts: not cytotoxic
[5]; MRC5-hTERT, 200 μM, 2, 3, 4 and 7 days after plating, triplicate wells
  necrosis / viability by trypan blue exclusion: unaffected; also recorded: not in MRC5-h-TERT immortalised fibroblasts
NCI-H460 cells [6]
  ATP levels: progressive diminution
H460 cells
  effect on cell cycle phase distribution: no effect
[7]
  H460 cells killed: 50%
[8]
  effect on MRC5-hTERT fibroblasts, time lapse: unaffected
[9]
  time at which morphological changes of vacuolation + cellular swelling are seen: 90 hours
  time to cell death: 96 h
